Results on 37 molecules are retold here after US20260076975A1, “TPK AGONIST AND METHOD FOR USING SAME TO TREAT NEURODEGENERATIVE DISEASES” (SHANGHAI RAISING PHARMACEUTICAL CO., LTD., priority 2022, published 2026).

Like-named read-outs stand apart in the source and are kept apart here.

This assay concerns the target TPK enzyme (Homo sapiens, UniProt Q9H3S4). Nature of the assay: TPK enzyme activity test (TDP formation from thiamine and ATP, HPLC detection). The class given is biochemical. On the procedure:
The purpose of this example was to test the promoting effect of compounds on TPK enzyme activity and evaluate the in vitro activity of the compounds based on EC50 and Emax.
1.1) The constant-temperature water-bath shaker was pre-heated half an hour in advance at a pre-heating temperature of 37° C.
1.2) The stock solution of the compound to be tested was taken out, allowed to thaw at room temperature, and then diluted to the required concentration.
1.3) The required reagents were placed on ice to thaw.
2.1) For each reaction system, TPK enzyme solution, Tris-HCl buffer solution, and ATP solution were added. The concentration of ATP used was 1-500 mM. The above three solutions were formulated into a homogeneous mixture.
2.2) The mixture of the above three solutions was dispensed into centrifuge tubes. Then, the compound at the required concentration was added to each centrifuge tube. Finally, thiamine solution (1-100 μM) was added. After the addition of the above system was completed, the centrifuge tubes were tightly capped, inserted into a floating board, and placed in the constant-temperature water-bath shaker that had been pre-heated to 37° C. for incubation for 0.5-2.0 hours.
2.3) After the incubation was completed, perchloric acid stop solution was added and mixed well. Samples were taken into 1.5 mL centrifuge tubes and stored at −20° C.
3.1) The samples stored at −20° C. were taken out, thawed at room temperature, and then subjected to derivatization treatment. The samples were placed in centrifuge tubes, a potassium ferricyanide derivatization reagent was added, and finally phosphoric acid stop solution was added to stop the reaction.
3.2) The derivatized samples were placed in sample vials for liquid chromatography analysis, and the contents of TDP/thiamine were detected by high performance liquid chromatography. TKP enzyme activity=TDP (nM)/mg protein/min.
The effects of the compounds of the present invention on TPK enzyme activity at different concentrations were determined according to the above procedures.

The mark [1] stands for this setting: promoting effect on TPK enzyme activity.
Where [2] appears, read: promoting effect on TPK enzyme activity, calculated with the effect of DMSO on TPK enzyme activity as 100%, read-out: Emax.

Chain of TPK enzyme (Q9H3S4 whole entry): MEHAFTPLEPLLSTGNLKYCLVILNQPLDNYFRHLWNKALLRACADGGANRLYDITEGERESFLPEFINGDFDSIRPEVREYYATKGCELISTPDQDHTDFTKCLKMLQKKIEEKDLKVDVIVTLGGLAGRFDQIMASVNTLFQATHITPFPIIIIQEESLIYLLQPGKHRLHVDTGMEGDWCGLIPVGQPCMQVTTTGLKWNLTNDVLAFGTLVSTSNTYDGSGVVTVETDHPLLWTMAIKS

In general, EC50 refers to the concentration at which the effect is half-maximal. Read a high EC50 as weaker potency. What is called Emax is the maximal effect, on the per cent scale that the assay sets. As to `O=C1CCc2ccc(OCCCCCN3CCN(c4cccc(C(F)(F)F)c4)CC3)cc2N1` [Compound 7, 7-((5-(4-(3-(trifluoromethyl)phenyl)piperazin-1-yl)pentyl)oxy)-3,4-dihydroquinolin-2(1H)-one], the EC50 under setting [1] amounted to 1.18 µM. The Emax under setting [2] is 224%.
For `Cc1cc2c(s1)Nc1ccccc1N=C2N1CCN(CCCCOc2ccc3c(c2)NC(=O)CC3)CC1` [Compound 42, 7-(4-(4-(2-methyl-10H-benzo[b]thieno[2,3-e][1,4]diazepin-4-yl)piperazin-1-yl)butoxy)-3,4-dihydroquinolin-2(1H)-one], in that order: 1 µM and 170%.
Take `CC(=O)N1CCCc2cc(C(=O)N3CCN(c4cccc(C(F)(F)F)c4)CC3)ccc21` [Compound 165, 1-(6-(4-(3-(trifluoromethyl)phenyl)piperazine-1-carbonyl)-3,4-dihydroquinolin-1(2H)-yl)ethan-1-one]: the maximum response (Emax) came out at 148%. This molecule also gave an EC50 under setting [1] of 9.8 µM.
For `Cc1ccc2c(n1)N(CCCCCN1CCN(c3cccc(Cl)c3Cl)CC1)CCO2` [Compound 75, 4-(5-(4-(2,3-dichlorophenyl)piperazin-1-yl)pentyl)-6-methyl-3,4-dihydro-2H-pyrido[3,2-b][1,4]oxazine], in that order: 136% and 0.22 µM.
With `O=C1CCc2cc(OCCCN3CC(=O)Nc4ccc(Cl)cc43)ccc2N1` [Compound 115, 6-chloro-4-(3-((2-oxo-1,2,3,4-tetrahydroquinolin-6-yl)oxy)propyl)-3,4-dihydroquinoxalin-2(1H)-one], the Emax under setting [2] is 159%.
Same read-out and setting: the same measure for `COc1cc(/C=C/C(=O)N2CCN(c3cccc(Cl)c3Cl)CC2)cc(OC)c1OC` [Compound 57]: 135%.
Under setting [1], `O=C(CN1CCC(c2c[nH]c3ccccc23)CC1)NC(=O)NC1CC1` [Compound 138] showed an EC50 of 1.01 µM. Under setting [2], the Emax was 180%.
`CCC1Oc2cc(S(=O)(=O)N(C)CC(=O)NCc3ccc(Cl)cc3)c(C)cc2NC1=O` (stereo not shown) [Compound 143]: under setting [2], the maximal response (Emax) is 122%.
Regarding `Cc1cccc(NC(=O)CSCC(=O)N2CCN(c3cccc(Cl)c3Cl)CC2)c1` [Compound 46], the response under setting [1] was half-maximal at 1.31 µM (EC50). Under setting [2], the Emax is 149%.
The matching figures for `O=C1COc2ccc(OCCCCN3CCN(c4cccc(Cl)c4Cl)CC3)cc2N1` [Compound 26]: 1.22 µM and 190%.
On to `CC(NC(=O)Nc1nncs1)c1ccc2c(c1)CCC(=O)N2` (stereo not shown) [Compound 156], for which, under setting [2], the Emax is 120%.
Turning to `COc1cncc(C#CCCN2CCN(c3cccc(Cl)c3Cl)CC2)c1` [Compound 71, 1-(2,3-dichlorophenyl)-4-(4-(5-methoxypyridin-3-yl)but-3-yn-1-yl)piperazine], the Emax worked out at 189%. Also, the midpoint of the response under setting [1], the EC50, lay at 1.19 µM.
The molecule `CC(=O)N1CCCc2cc(C(=O)N3CCC(Cc4ccc(F)cc4)CC3)ccc21` [Compound 168, 1-(6-(4-(4-fluorobenzyl)piperidine-1-carbonyl)-3,4-dihydroquinolin-1(2H)-yl)ethan-1-one] had an EC50 under setting [1] of 5.43 µM. Besides, under setting [2], the Emax was 151%.
In turn, `COc1ccc(CCNC(=O)N2CCN(c3cccc(Cl)c3Cl)CC2)cc1OC` [Compound 64, 4-(2,3-dichlorophenyl)-N-(3,4-dimethoxyphenethyl)piperazine-1-carboxamide] displayed an Emax of 184%. The molecule further came in with an EC50 under setting [1] of 4.71 µM.
Molecule `COc1ccc(/C=C/C(=O)N2CCN(c3cccc(Cl)c3Cl)CC2)cc1OC` [Compound 58] returned an EC50 under setting [1] of 1.2 µM. Besides, under setting [2], the Emax was 223%.
Turning to `O=C(CCn1cnc2sccc2c1=O)N1CCN(c2cccc(C(F)(F)F)c2)CC1` [Compound 147], under setting [2], the Emax is 147%.
Consider `COc1ccc(/C=C/CC(=O)N2CCN(c3cccc(Cl)c3Cl)CC2)cc1OC` [Compound 59, (E)-1-(4-(2,3-dichlorophenyl)piperazin-1-yl)-4-(3,4-dimethoxyphenyl)but-3-en-1-one], for which the Emax was found to be 206%. This molecule also returned an EC50 under setting [1] of 1.22 µM.
As for `Cc1ccc(Cl)cc1N1CCN(CCCNC(=O)C2COc3ccccc3C2)CC1` (stereo not shown) [Compound 149], the Emax under setting [2] was 182%.
In turn, `COc1ccc(C(=O)NCCCCC(=O)N2CCN(c3cccc(Cl)c3Cl)CC2)cc1OC` [Compound 171, N-(5-(4-(2,3-dichlorophenyl)piperazin-1-yl)-5-oxopentyl)-3,4-dimethoxybenzamide] yielded a maximal response (Emax) of 127%.
Molecule `O=C(CCOCc1ccc(N2CCCCC2)nc1)NCCc1cccc2ccc(O)cc12` [Compound 178, N-(2-(7-hydroxynaphthalen-1-yl)ethyl)-3-((6-(piperidin-1-yl)pyridin-3-yl)methoxy)propanamide] registered a maximal response (Emax) of 120%.
For `CNc1cc(NC(=O)CCN2CCN(c3cccc(Cl)c3Cl)CC2)ccc1OC` [Compound 50, 3-(4-(2,3-dichlorophenyl)piperazin-1-yl)-N-(4-methoxy-3-(methylamino)phenyl)propanamide], the Emax under setting [2] is 128%.
Turning to `CCOC(=O)c1nc(CNC(=O)CCCN2CCN(c3nc4ccccc4s3)CC2)sc1C` [Compound 80, ethyl 2-((4-(4-(benzo[d]thiazol-2-yl)piperazin-1-yl)butanamido)methyl)-5-methylthiazole-4-carboxylate], under setting [1], it took 2.55 µM to reach a half-maximal effect (EC50). Also, the Emax under setting [2] is 150%.
Regarding `O=C1CCc2ccc(OCCCCCCN3CCN(c4cccc(Cl)c4Cl)CC3)cc2N1` [Compound 3, 7-((6-(4-(2,3-dichlorophenyl)piperazin-1-yl)hexyl)oxy)-3,4-dihydroquinolin-2(1H)-one], the Emax under setting [2] was 205%.
As for `O=C1COc2ccc(C(=O)COC(=O)C=Cc3ccc(S(=O)(=O)N4CCCCCC4)cc3)cc2N1` [Compound 154], the Emax under setting [2] is 132%.
As for `O=C1Cc2ccc(OCCCCN3CCN(c4cccc(C(F)(F)F)c4)CC3)cc2N1` [Compound 25, 6-(4-(4-(3-(trifluoromethyl)phenyl)piperazin-1-yl)butoxy)indolin-2-one], the 50% effective concentration (EC50) under setting [1] worked out at 0.754 µM. Moreover, under setting [2], the Emax was 138%.
The matching figures for `O=c1ccc2ccc(OCCCCN3CCN(c4nc5ccccc5s4)CC3)cc2[nH]1` [Compound 37, 7-(4-(4-(benzo[d]thiazol-2-yl)piperazin-1-yl)butoxy)quinolin-2(1H)-one]: 1.17 µM and 224%.
The molecule `COC(=O)c1cc(OC)c(OC)cc1C(=O)N1CCN(c2cccc(Cl)c2Cl)CC1` [Compound 173, methyl 2-(4-(2,3-dichlorophenyl)piperazine-1-carbonyl)-4,5-dimethoxybenzoate] had an Emax of 132%.
Turning to `CN(CC(=O)NCc1ccc(Cl)cc1)S(=O)(=O)c1ccc2[nH]c(=O)ccc2c1` [Compound 145], the Emax under setting [2] was 120%.
Molecule `COc1ccc(C(=O)NCCCC(=O)N2CCN(c3cccc(Cl)c3Cl)CC2)cc1OC` [Compound 170] returned an Emax of 156%. Besides, the midpoint of the response under setting [1], the EC50, lay at 4.39 µM.
For `COc1ccc(C(=O)NCCC(=O)N2CCN(c3cccc(Cl)c3Cl)CC2)cc1OC` [Compound 169, N-(3-(4-(2,3-dichlorophenyl)piperazin-1-yl)-3-oxopropyl)-3,4-dimethoxybenzamide], the Emax came out at 148%. This molecule also showed an EC50 under setting [1] of 7.23 µM.
Consider `COc1ccc(/C=C/CN2CCN(c3nc4ccccc4s3)CC2)cc1OC` [Compound 73, (E)-2-(4-(3-(3,4-dimethoxyphenyl)allyl)piperazin-1-yl)benzo[d]thiazole], for which, under setting [1], the response was half-maximal at 0.65 µM (EC50). Besides, the Emax under setting [2] is 155%.
Consider `COc1cc2c(cc1OC)N(CCCCN1CCN(c3cccc(Cl)c3Cl)CC1)C(=O)C2` [Compound 79, 1-(4-(4-(2,3-dichlorophenyl)piperazin-1-yl)butyl)-5,6-dimethoxyindolin-2-one], for which the Emax worked out at 133%.
The same measure, in the same setting: for `O=C(NCCCCN1CCN(c2cc(C(F)(F)F)cc(C(F)(F)F)c2)CC1)c1ccc(Cl)cc1` [Compound 53, N-(4-(4-(3,5-bis(trifluoromethyl)phenyl)piperazin-1-yl)butyl)-4-chlorobenzamide] the value was 133%.
`O=C1CCc2ccc(OCC(=O)NC3CCC(c4cccc(Cl)c4Cl)CC3)cc2N1` (stereo not shown) [Compound 21, N-(4-(2,3-dichlorophenyl)cyclohexyl)-2-((2-oxo-1,2,3,4-tetrahydroquinolin-7-yl)oxy)acetamide] registered a 50% effective concentration (EC50) under setting [1] of 1.06 µM. Besides, the Emax under setting [2] was 166%.
With `O=C1CCc2cc(OCC(=O)N3CCCN(Cc4ccc(Cl)cc4)CC3)ccc2N1` [Compound 141], the Emax under setting [2] was 124%.
In the case of `O=C1CCc2ccc(OCCCCCN3CCN(c4cccc(Cl)c4Cl)CC3)cc2N1` [Compound 4, 7-((5-(4-(2,3-dichlorophenyl)piperazin-1-yl)pentyl)oxy)-3,4-dihydroquinolin-2(1H)-one], the EC50 under setting [1] came out at 1.04 µM. Further, the Emax under setting [2] is 194%.
As for `Clc1cccc(N2CCN(CCCCOc3ccc4ncsc4c3)CC2)c1Cl` [Compound 29, 6-(4-(4-(2,3-dichlorophenyl)piperazin-1-yl)butoxy)benzo[d]thiazole], under setting [1], the EC50 stood at 2.28 µM. In addition, under setting [2], the Emax was 191%.
